The source of these data is patent US20240408143A1, “METHODS FOR CULTURING MESENCHYMAL STEM CELLS, COMPOSITIONS AND IMPLEMENTATIONS THEREOF” (Pandorum Technologies Private Limited, priority 2021, published 2024).

The test system of test [1] is hBM-MSCs. The test is described as follows: Yield of exosomes from primed hBM-MSCs. It counts as cell-based, human. To be noted: priming of hBM-MSCs, compared to untreated (naïve) and other priming agents. As for the experimental part:
hBM-MSC was cultured in xeno-free media recommended by the manufacturer, hBM-MSC cells were grown to reach confluency of (80-90) % and treated with a Nrf2 activator (DMF-100 μM) for 24 hours before shifting and maintaining the cells in EV collect media for 24-72 hours (see example 3.3). After 72 hours, condition media was collected, and exosome isolation was performed using iodixanol density gradient protocol (as described in example 4.4).

Test [2] deals with hBM-MSCs. The test is described as follows: Secretome analysis of primed hBM-MSCs by ELISA. The class given is cell-based, human. Conditions: vs control/untreated. As for the experimental part: hBM-MSCs were cultured in xeno free media along with a replacement of 10% and 20% of CSSC-derived conditioned media (CSSC-CM) to reach a confluence of 80-90%. The media was then subsequently shifted to EV collect for 24-72 hours and primed conditioned media was collected (as described in example 1.1, and 1.2), and exosome isolation was performed by iodixanol density gradient method (as described in example 4.4) and enriched exosomes were obtained. Homogenous fraction F9 was considered for further functional analysis. The secretome analysis was performed using ELISA, detecting the levels of HGF, VEGF, sFLT1, IL-6, NGF.
hBM-MSCs were primed with various priming agents (small molecules) and the secretome was collected (see example 3.2-3.6). The secretome analysis was performed using ELISA, and the levels of HGF, VEGF, NGF, IL-6, sFLT1, SDF1 were detected. FIGS. 6A-6F depict bar graphs of the quantification of the secreted protein levels of HGF, VEGF, NGF, IL-6, sFLT1, and SDF-1 from hBM-MSCs primed with curcumin, 4-OI, DMF, or the combination of curcumin conditioned media and DMF.

In test [3] the test system is MSCs. Put plainly: PGE2 levels in MSCs pre-treated with ATRA. The class given is cell-based. Conditions: 1, 10, 100 μmol/L, dose-dependent. The procedure:
(§1) ATRA is found to increase the viability of MSCs. This was ascertained as the MSCs were treated with various concentrations of ATRA (0.1 μM to 500 μM) for 24 and 48 hours and their viability were examined by MTT assay. […] ATRA elevated the PGE2 levels. […] ATRA increased the expression of genes involved in MSC survival, migration and angiogenesis.

Test [4] relates to MSCs. The test is described as follows: Quantitative real time-PCR of MSCs treated with ATRA. It counts as cell-based. To be noted: 1, 10, 100 μmol/L. The procedure: as §1
Test [5] relates to MSCs. The test is described as follows: MSC viability by MTT assay after ATRA treatment. The class given is cell-based. Conditions: 0.1 μM to 500 μM for 24 and 48 hours; all treated MSCs except 0.1 μmol/L. As for the experimental part:
as §1

In test [6] the test system is NASH-induced liver spheroids. Put plainly: Treatment of NASH-induced human liver spheroids, marker staining and albumin ELISA. It counts as cell-based. Conditions: treatment at D17-D19 after NASH induction, ELISA at 24, 48, 72 hours; HGF 40 ng/ml. As for the experimental part:
The protocol for generating human liver spheroids and inducing a NASH phenotype in the human liver spheroids for the present study was as follows: A mix of primary hepatocytes and liver stellate cells from human donors were co-cultured at a 70:30 ratio (70 hepatocytes to 30 liver stellate cells). The cell mixture was seeded on ultra-low attachment plates and cultured to form viable liver spheroids. […] The NASH induction protocol was as follows: On day 7 post seeding, the spheroids were treated with 600 μM free fatty acid (FFA) mixture consisting of Oleic acid and Palmitic acid at a weight ratio of 2:1 for 6 days with media change every other day. After 6 days of FFA treatment (13 days post seeding), 20 ng/mL of TGF β1 was added to the FFA-containing media for a further two days of combined FFA and TGFβ1 treatment. At day 15 post seeding (after 8 days of FFA treatment and 2 days of combined FFA and TGFβ1 treatment), the media was changed to TGF β1-only treatment, with 20 ng/mL TGF β1 and without the FFA mix. […], at day 19 post seeding, the spheroids and the conditioned media were harvested for characterization. […]
Secreted albumin levels is another marker of liver health. […] The secreted albumin in the culture medium was quantified based on ELISA measurements. […]
Background: An ELISA detects its analyte on a solid surface through an enzyme-linked reagent.

The test system of test [7] is NASH-induced liver spheroids. The test is described as follows: Microarray gene expression profiling of NASH-induced human liver spheroids. It counts as cell-based. The text has this: As described herein above and shown in FIGS. 15A-15F, the effect on the liver spheroids of treatment with disease-state induction agents such the FFA mixture or TGFβ1 and/or with therapeutic agents such as the exosomes can be assayed one marker (or a new markers) at a time with techniques such as immune-staining and ELISA. However, a much larger count (dozens, hundreds, thousands) of markers may be assay simultaneously using high-throughput techniques, such as microarray or next generation sequencing (NGS). FIG. 16A depicts a heatmap of changes in gene expression of liver spheroids based on microarray hybridization data. Microarray hybridization data was acquired as follows: After growth of liver spheroid samples and treatment with NASH-induction agents and/or with therapeutic agents as describe above, the liver spheroids were isolated, lysed, and mRNA was isolated, then converted to sequences of complementary DNA (cDNA). The cDNA samples were then applied to an Agilent® microarray and read with a microarray reader. The microarray analysis was performed for a predetermined transcriptome set of 22,473 genes (included in the microarray) using standard methods to obtain normalized expression values. […]
The gene expression levels of the liver spheroids in each of the different liver spheroid states were also represented and stored, respectively, as feature vectors (“spheroid state feature vectors”), with each element of a given spheroid state feature vector being a level of expression of one of the genes assayed in the microarray. The similarity (or lack of similarity) of the gene expression profile between different states was determined based on a measure of distance between pairs of feature vectors in an n-dimensional space, n being the number of genes represented in each of the feature vectors. […]

Structures can show the parent of a compound that is named as a salt.

As for `C=C(CC(=O)OCCCCCCCC)C(=O)O` [4-OI, 4 Octyl itaconate], in test [1], the yield of exosomes entry was “higher yield”. In test [2], the “secreted HGF level” value is reported as “significant increase”, the “secreted IL-6 level” value is “attenuated” and the “secreted NGF level” value is “enhanced”.
As to `CC1=C(/C=C/C(C)=C/C=C/C(C)=C/C(=O)O)C(C)(C)CCC1` [ATRA, all-trans retinoic acid], in test [3], the PGE2 levels result is listed as “significantly increased”. Besides, the “mRNA levels of COX-2, HIF-1, CXCR4, CCR2, VEGF, Ang-2 and Ang-4” value in test [4] is “elevated in a dose dependent manner”. Further, in test [5], the MSC viability result is given as “significantly higher”.
Regarding `COC(=O)/C=C/C(=O)OC` [DMF, Dimethyl fumarate], the yield of exosomes entry in test [1] is listed as “higher yield”. In addition, in test [2], the “secreted HGF level” value was “significant increase”, the “secreted IL-6 level” value is reported as “attenuated”, the “secreted NGF level” value is on record as “increase” and the “secreted SDF-1 level” value was “increase”. Also, the “secreted sFLT1 level” value in test [2] is given as “increase”.
Consider `COc1cc(/C=C/C(=O)CC(=O)/C=C/c2ccc(O)c(OC)c2)ccc1O` [curcumin, Curcumin], for which the “secreted IL-6 level” value in test [2] is recorded as “attenuated”.
With “HGF: 40 ng/ml hepatic growth factor used as comparison treatment of NASH-induced liver spheroids”, in test [6], the albumin secretion result was “did not result in increased”. Further, in test [7] (FIGS. 18A-18C gene sets), the “recovery based on gene expression patterns, Jaccard Similarity Index coordinates” value is listed as “substantially more similar to the diseased state”. Moreover, the “gene expression profile of 287 liver specific genes, cluster analysis” value in test [7] (treatment after NASH induction) is reported as “most closely resembled the gene expression profile of the Diseased liver spheroid state”. Further, the “gene expression profile, principal component analysis” value in test [7] (treatment at D17-D19 after NASH induction, HGF 40 ng/ml) is “substantially unchanged”.
